Assay results: patent US5804590A, “Treatment and prophylaxis of osteoporosis” (Sankyo Company, Limited, priority 1995, dated 1998)
Entries after “also recorded” stand apart in the source; their conditions may differ.

How the values were obtained:
[1] = tested on: Zucker Diabetic Fatty rats; experiment: Control of diabetes in ZDF rats; format: in vivo
Protocol: (§1) 1. Zucker Diabetic Fatty rats ("ZDF rats"): these are experimental animals with spontaneous diabetes mellitus. A test drug was administered to these animals in a conventional F2 powdery feed. This group is referred to as the "test ZDF group".
(§2) Compound No. 1, or 5-[4-(6-hydroxy-2,5,7,8-tetramethylchroman-2-ylmethoxy)benzyl]thiazolidin- 2,4-dione, also known as "troglitazone", was administered to 6 week old ZDF rats, by mixing it into F2 powdery feed in an amount of 0.2% w/w for a period of 13 weeks. The mean dosage was 165 mg/kg/day. […] At 19 weeks of age, the rats were sacrificed by ether anesthesia followed by blood-letting from the abdominal aorta. The femoral bones were excised to measure their bone mineral density. For the measurement by X ray, Bone Mineral Density Measuring Apparatus (DCS-600R, Aloka, Japan) was employed.
(§3) 3. A test ZDF group in which troglitazone was present in the feed in an amount of 0.2%, resulting in an average uptake of 132 mg/kg/day (hereinafter the "troglitazone ZDF group").
(§4) 4. A test ZDF group in which pioglitazone was present in the feed in an amount of 0.067%, resulting in an average uptake of 52.6 mg/kg/day (hereinafter the "pioglitazone ZDF group").
(§5) 3. A test ZDF group in which troglitazone was present in the feed in an amount of 0.05%, resulting in an average uptake of 43.5 mg/kg/day (hereinafter the "low troglitazone ZDF group").
(§6) 4. A test ZDF group in which troglitazone was present in the feed in an amount of 0.1%, resulting in an average uptake of 89.8 mg/kg/day (hereinafter the "high troglitazone ZDF group").
(§7) 5. A test ZDF group in which pioglitazone was present in the feed in an amount of 0.0125%, resulting in an average uptake of 12.4 mg/kg/day (hereinafter the "low pioglitazone ZDF group").
(§8) 6. A test ZDF group in which pioglitazone was present in the feed in an amount of 0.025%, resulting in an average uptake of 23.1 mg/kg/day (hereinafter the "high pioglitazone ZDF group").

ddy-mice = experiment: Acute toxicity, oral administration; settings: in vivo, po, 300 mg/kg
Protocol: (§9) The acute toxicity of troglitazone was examined by a conventional procedure.
(§10) To 3 ddy-mice, a dose of 300 mg/kg of troglitazone was administered orally.
(§11) The acute toxicities of Compounds Nos. 2, 3, 4 and 10 were examined in a similar way by oral administration. The acute toxicity values were all found to be more than 300 mg/kg.

[2] = tested on: Zucker Diabetic Fatty rats; experiment: Measurement of bone mineral density (femoral bones, ZDF rats); format: in vivo; settings: for Bone mineral density (BMD): mean ± standard error
Protocol: Osteoporosis may be assessed by a measurement of bone mineral density. Bone mineral density can be measured according to the method reported, for example, in Radioisotope, 37, (9), 521-524 (1988) or in Rinsho-Hoshasen, 35, (1), 41-48 (1990).
Three groups of animals were tested:
as §1
2. ZDF rats to which the F2 powdery feed is administered without the drug. This group is referred to as the "control ZDF group".
3. Normal experimental rats (i.e. not ZDF rats) to which the F2 powdery feed is administered without the drug. This group is referred to as the "normal group".
as §2
The experiment reported in Example 1 was repeated, using 4 groups of rats:
1. A normal group (as in Example 1).
2. A control ZDF group (as in Example 1).
as §3, §4
The experiment reported in Example 1 was repeated, but only for 4 weeks, using 6 groups of rats:
as §5, §6, §7, §8

[3] = Acute toxicity, oral administration; settings: mouse, in vivo; oral administration
Protocol: as §9, §10, §11

rat = settings: J. Bone & Mineral Research, 10(1), S361 (1995); cited from earlier work
[4] = Example 2, troglitazone 132 mg/kg/day, pioglitazone 52.6 mg/kg/day
[5] = Example 3, troglitazone 43.5 and 89.8 mg/kg/day, pioglitazone 12.4 and 23.1 mg/kg/day
[6] = Example 2, at doses that fully control diabetes, compared with control ZDF rats
[7] = Example 3, low and high doses, 4 weeks, as compared with control ZDF group

Structure (SMILES) | control of diabetes [1, 4] | control of diabetes [1, 5] | effect on bone mineral density (in words) [2, 6] | effect on bone mineral density (in words) [2, 7] | LD50 at 120 h [3] [mg/kg] | other results
Cc1c(C)c2c(c(C)c1O)CCC(C)(COc1ccc(CC3SC(=O)NC3=O)cc1)O2 (centres unmarked) [Compound No. 1, 5-[4-(6-Hydroxy-2,5,7,8-tetramethylchroman-2-ylmethoxy)benzyl]thiazolidin-2,4-dione] | fully controlled diabetes | do not control diabetes or control it only partially; also recorded: incompletely effective against diabetes | increased BMD from the depressed level in the control ZDF rats almost to the level found in normal rats | improves BMD as compared with the control ZDF group |  | control of diabetes ([1]; Example 1, mean dosage 165 mg/kg/day in feed): diabetes is fully controlled; survival after 5 days (ddy-mice): all mice were alive; Bone mineral density (BMD) ([2]; Example 1, test ZDF group, 0.2% w/w in feed, mean 165 mg/kg/day, 13 weeks, n=7, * p < 0.05 vs control ZDF (164.6 ± 3.9), normal 187.3 ± 2.3): 172.8 ± 7.2 mg/cm^2; Bone mineral density (BMD) ([2]; Example 2, troglitazone ZDF group, 0.2% in feed, 132 mg/kg/day, n=6, *** p < 0.001 vs control ZDF (157.0 ± 2.2), normal 187.4 ± 1.5): 169.4 ± 1.1 mg/cm^2; Bone mineral density (BMD) ([2]; Example 3, 4 weeks, high troglitazone ZDF group, 0.1% in feed, 89.8 mg/kg/day, n=5, *** p < 0.001 vs control ZDF (149.8 ± 1.0)): 159.8 ± 1.2 mg/cm^2; Bone mineral density (BMD) ([2]; Example 3, 4 weeks, low troglitazone ZDF group, 0.05% in feed, 43.5 mg/kg/day, n=5, *** p < 0.001 vs control ZDF (149.8 ± 1.0), normal 153.4 ± 0.9): 156.6 ± 1.5 mg/cm^2
Cc1c(C)c2c(c(C)c1O)CCC(COc1ccc(CC3SC(=O)NC3=O)cc1)O2 (centres unmarked) [compound 2] |  |  |  |  | > 300 | 
CC1(COc2ccc(CC3SC(=O)NC3=O)cc2)CCc2cc(O)ccc2O1 (centres unmarked) [compound 3] |  |  |  |  | > 300 | 
CC1(COc2ccc(CC3SC(=O)NC3=O)cc2)CCc2cc(O)c(C(C)(C)C)cc2O1 (centres unmarked) [compound 4, 5-[4-(6-Hydroxy-2-methyl-7-t-butylchroman-2-ylmethoxy)benzyl]thiazolidin-2,4-dione] |  |  |  |  | > 300 | 
CCOC(=O)Oc1c(C)c(C)c2c(c1C)CCC(C)(COc1ccc(CC3SC(=O)NC3=O)cc1)O2 (centres unmarked) [compound 10] |  |  |  |  | > 300 | 
CCc1ccc(CCOc2ccc(CC3SC(=O)NC3=O)cc2)nc1 (centres unmarked) [pioglitazone, reference compound] | fully controlled diabetes | do not control diabetes or control it only partially; also recorded: incompletely effective against diabetes | reduced BMD to below the level found in untreated ZDF rats | not effective |  | anti-diabetic activity relative to troglitazone ([1]; statement in Example 2): more active than troglitazone; bone loss as assessed by bone mineral density (rat): lead to bone loss, as assessed by a decrease in bone mineral density; Bone mineral density (BMD) ([2]; Example 2, pioglitazone ZDF group, 0.067% in feed, 52.6 mg/kg/day, n=6, * p < 0.05 vs control ZDF (157.0 ± 2.2)): 149.3 ± 1.8 mg/cm^2; Bone mineral density (BMD) ([2]; Example 3, 4 weeks, high pioglitazone ZDF group, 0.025% in feed, 23.1 mg/kg/day, n=5, control ZDF 149.8 ± 1.0): 151.2 ± 0.7 mg/cm^2; Bone mineral density (BMD) ([2]; Example 3, 4 weeks, low pioglitazone ZDF group, 0.0125% in feed, 12.4 mg/kg/day, n=5, control ZDF 149.8 ± 1.0): 151.2 ± 0.9 mg/cm^2
